Reference: patent US20060079447A1, “Stabilized A-beta protofibrillar aggregates” (priority 2004, published 2006)
Where a name gives a salt, the structure may show the parent alone. Read-outs that look alike come from different tables or passages of the source.

Tests used:
[1] = molecular target: T1, Aβ(1-40) fibrils / biotinyl-Aβ(1-40) (Homo sapiens, UniProt P05067); test: Microplate Aβ(1-40) elongation screening assay, LOPAC library; assay type: biochemical; details: for Initial stimulation observed: original LOPAC screen, deposition of biotinyl-Aβ(1-40) on immobilized fibrils
T1 construct: purchased Keck Biotechnology Center at Yale University
Protocol: Microtiterplate Elongation and Screening Assays. The Aβ(1-40) microplate elongation assay has been described (12). For screening the compound library, plates were coated with 100 ng Aβ(1-40) fibrils and washed. The assay was initiated by adding to each well, in order, 80 μl assay buffer [PBSA (phosphate-buffered saline containing 0.05% (w/v) sodium azide) containing 0.05% Tween 20], 10 μl of a 1 mM solution of test compound in DMSO, and 10 μl 100 nM biotinyl-Aβ in assay buffer. Plates were incubated 30 mins at 37° C., then washed and the signal developed as described using a streptavidin-europium linked fluorescence assay (12, 13). Each microplate collection of compounds was assayed in triplicate, and results reported as % inhibition compared to control wells lacking test compounds.
We screened a small library of 640 compounds, the LOPAC library (Sigma), using a microplate-based Aβ elongation assay. In this assay, plastic wells containing immobilized fibrils are incubated with a biotin-tagged monomer in the presence or absence of potential modifiers (13, 18). We found a number of compounds with potent abilities to enhance deposition of the biotin-tagged Aβ(1-40) (FIG. 1). Seven of the compounds were selected for further analysis:—amiloride HCl, phenamil methane sulfonate, naftopidil dihydrochloride, NPC 15437 dihydrochloride, calmidazolium chloride (R24571), 5-(nonoxyl)-tryptamine hydrogen oxalate, and L-α-methyl DOPA. The compounds have a wide variety of structures and biochemical properties. The structures of these seven compounds are shown in FIG. 9, along with the percent stimulation observed in the experiments.
We characterized the activity of CLC in the microplate assay in more detail.

Aβ = molecular target: T2, Aβ (Homo sapiens, UniProt P05067); test: Secondary screening: aggregate formation in the absence of seeding Aβ amyloid fibrils; assay type: biochemical
T2 construct: purchased Keck Biotechnology Center at Yale University
Description: Four compounds—calmidazolium chloride, NPC 15437, phenamil methane sulfonate, and amiloride HCl were chosen for secondary screening, e.g., assaying for formation of stabilized Aβ protofibrillar aggregates in the absence of seeding Aβ amyloid fibrils. All four compounds to be retested were purchased from Sigma.

[2] = molecular target: CLC-Aβ(1-40) aggregates (stabilized Aβ protofibrillar aggregates made with calmidazolium chloride); test: solution phase aggregation with 100 µM CLC; HPLC of centrifugation supernatants
Aβ(1-40) = molecular target: T3, Aβ(1-40) (Homo sapiens, UniProt P05067); test: Solution phase aggregation assay (ThT fluorescence, HPLC of centrifugation supernatants); assay type: biochemical
T3 construct: purchased Keck Biotechnology Center at Yale University
Protocol: Aβ(1-40) peptides were disaggregated just prior to use, as described previously (12, 14). Peptides (50 μM in fibril formation reactions, approximately 30 μM in CLC aggregation reactions) were incubated in […] at 37° C. Reaction progress was followed by ThT fluorescence and/or quantitative HPLC on centrifugation (30 mins, 315,000×g) supernatants of reaction aliquots (12, 15). The Cr value is the concentration of Aβ in solution when this value stops changing with time. For amyloid fibril growth, this value represents a position of dynamic equilibrium and is the reciprocal of the growth equilibrium constant for the amyloid fibrils (15); for the CLC-induced aggregation, the value is a more qualitative measure of the stability of the Aβ-CLC aggregates. Samples of aggregates were stored at −80° C. after snap-freezing of washed pellets. Reactions with CLC contained 10% DMSO from the CLC stock solution.
To confirm the microtiter plate assay, we carried out solution phase experiments using unlabelled Aβ(1-40). […] During the ThT lag phase, the amount of soluble, monomeric Aβ is reduced by about a factor of two, consistent with the formation of protofibrillar structures with low ThT response (2). In contrast, in the presence of 100 μM CLC, Aβ(1-40) is rapidly converted to a pelletable aggregate, so that within 1-2 hrs only 2-3 μM Aβ remains in solution after centrifugation (FIG. 3a,b); when these aggregates are isolated by sedimentation, they are found to contain a ratio of 4 moles of CLC per mole of Aβ(1-40) (results of independent analyses against both HPLC and MS standard curves). The significance of this ratio is not clear.

Aβ (1-42) = molecular target: T4, Aβ (1-42) (Homo sapiens, UniProt P05067); details: cited from earlier work
T4 construct: polymeric sheet intermediates using Aβ (1-42) and a compound Ro 90-7501

[3] = stimulation of Aβ deposition, microplate assay, read-out: EC50

T3 sequence (P05067 672-711): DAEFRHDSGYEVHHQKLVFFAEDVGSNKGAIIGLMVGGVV
T2 sequence (P05067 672-711 limits assumed): as the sequence (P05067 672-711) above
T1 sequence (P05067 672-711): as above
T4 sequence (P05067 672-713): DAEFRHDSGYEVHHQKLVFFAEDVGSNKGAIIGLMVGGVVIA

Compound | Initial stimulation observed [1] | EC50 [1, 3] | Activity in enhancing aggregate formation (Aβ) | other results
COc1ccccc1N1CCN(CC(O)COc2cccc3ccccc23)CC1 (stereo not shown) [Naftopidil dihydrochloride, naftopidil dihydrochloride] | 150% | ≥ 36.2 µM | – | –
N=C(N)NC(=O)c1nc(Cl)c(N)nc1N [Amiloride HCl, amiloride HCl] | 96% | ≥ 38.5 µM | sub-optimal activity | –
wild type Aβ(1-40) (disaggregated, monomeric) (peptide) | – | – | – | Cr (concentration of Aβ in solution when it stops changing with time) [2]: 1.6 µM
C[C@](N)(Cc1ccc(O)c(O)c1)C(=O)O [L-α-methyl DOPA] | 127% | ≥ 34.2 µM | – | –
P4: tetra-substituted Aβ(1-40) mutant with prolines at positions 9, 23, 30 and 37, SEQ ID NO:34 (DAEFRHDSPYEVHHQKLVFFAEPVGSNKGPIIGLMVPGVV; Amyloid-beta protein 40; UniProt P05067 672-711, looked up, variant G9P D23P A30P G37P) | – | – | – | Stability of amyloid fibrils (Aβ(1-40); scanning proline mutagenesis): same stability as wild type Aβ(1-40); Stability of CLC aggregates (Aβ(1-40); scanning proline mutagenesis, 100 μM CLC): significantly destabilized compared to WT
WT Aβ(1-40): wild type Aβ(1-40) peptide, SEQ ID NO:1 | – | – | – | Cr value, protofibril formation (Aβ(1-40); CLC-induced aggregation): 1.6 µM; Cr value, fibril formation (Aβ(1-40); amyloid fibril growth): 0.8 µM
CCCCCCCCCOc1ccc2[nH]cc(CCN)c2c1.O=C(O)C(=O)O [5-(nonyloxy)-tryptamine hydrogen oxalate] | 136% | – | – | EC50 [1]: ≥ 30.3 µM
Clc1ccc(C(c2ccc(Cl)cc2)n2cc[n+](CC(OCc3ccc(Cl)cc3Cl)c3ccc(Cl)cc3Cl)c2)cc1 (stereo not shown) [Calmidazolium chloride, calmidazolium chloride] | 598% | ≥ 21.4 µM | potent stabilizing compound | ThT signal relative to the same weight of mature amyloid fibrils (Aβ(1-40); 100 μM CLC, after 14 days): about 20%; Aβ remaining in solution after centrifugation (Aβ(1-40); 100 μM CLC, within 1-2 hrs): 2 to 3 µM; Stimulation of Aβ deposition compared to the elongation reaction in the absence of added compound ([1]; at 100 μM): about six; Concentrations at which deposition is stimulated (dose response) ([1]; deposition of 10 nM Aβ): 10 to 100 µM
Nc1ccc(-c2nc3ccc(-c4nc5ccc(N)cc5[nH]4)cc3[nH]2)cc1 [Ro 90-7501] | – | – | – | Effect on formation of mature fibrils (Aβ (1-42)): retarded but did not block formation of mature fibrils
CCCCCCCCCCCCC(=O)N1CCCCC1CNC(=O)C(N)CCCCN (stereo not shown) [NPC15437] | 149% | > 27.2 µM | sub-optimal activity | –
NC(=Nc1ccccc1)NC(=O)c1nc(Cl)c(N)nc1N [Phenamil methane sulfonate, phenamil methane sulfonate] | 242% | ≥ 35.5 µM | sub-optimal activity | –
